Measurements from US9302999B2, “Substituted triazoles as herbicides” (E. I. DU PONT DE NEMOURS AND COMPANY, priority 2012, dated 2016).

Experiments:
[1] = tested on: morningglory (Ipomoea coccinea); assay: Test C pre-/postemergence: morningglory; type: in vivo
Summary of the method: (§1)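 Visual injury scored 0–100 (100 = complete control) against untreated controls after 13–15 greenhouse days. Surfactant-containing solvent formulations applied either to soil after sowing (loam/sand) or over 1- to 4-leaf plants, 2–18 cm tall.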

[2] = tested on: sedge, umbrella (small-flower umbrella sedge Cyperus difformis); assay: Test B flooded paddy: sedge, umbrella; type: in vivo; conditions: Flood, applied to paddy water at 2-leaf stage, visually evaluated after 13 to 15 days
Summary of the method: (§2)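 Greenhouse assay lasting 13 to 15 days. Treatment was into water flooding pots 3 cm deep, at the 2-leaf stage, with that level sustained afterwards. Scores compare treated with control plants visually, 100 denoting complete control and 0 no effect; a dash marks no test result.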

[3] = tested on: Waterhemp; assay: Test C postemergence: waterhemp; type: in vivo; conditions: 62 g ai/ha, scale 0 to 100 (0 no effect, 100 complete control)
Summary of the method: (§3)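 Plants at the 1- to 4-leaf stage (2 to 18 cm tall), grown in pots of peat moss/vermiculite planting medium, received postemergence applications of the formulated test chemicals. After 13 to 15 days in a greenhouse, injury was scored visually versus controls from 0 (no effect) to 100 (complete control).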

[4] = tested on: corn (Zea mays); assay: Test C pre-/postemergence: corn; type: in vivo
Summary of the method: as §1

[5] = tested on: lambsquarters (Chenopodium album); assay: Test C pre-/postemergence: lambsquarters; type: in vivo
Summary of the method: as §1

[6] = tested on: galium (catchweed bedstraw, Galium aparine); assay: Test C pre-/postemergence: galium; type: in vivo
Summary of the method: as §1

[7] = tested on: Waterhemp; assay: Test C pre-/postemergence: waterhemp; type: in vivo; conditions: Postemergence, 31 g ai/ha; scale 0 to 100 (0 no effect, 100 complete control)
[8] = tested on: rice (Oryza sativa); assay: Test B flooded paddy: rice; type: in vivo; conditions: Flood, applied to paddy water at 2-leaf stage, visually evaluated after 13 to 15 days
Summary of the method: as §2

[9] = tested on: Barnyardgrass; assay: Test C postemergence: barnyardgrass; type: in vivo, Echinochloa crus-galli
Summary of the method: as §3

[10] = tested on: winter wheat (Triticum aestivum); assay: Test C pre-/postemergence: winter wheat; type: in vivo
Summary of the method: as §1

[11] = tested on: Oilseed Rape; assay: Test C preemergence: oilseed rape; type: in vivo; conditions: 62 g ai/ha, scale of 0 to 100, 0 is no effect, 100 is complete control
[12] = tested on: velvetleaf (Abutilon theophrasti); assay: Test C pre-/postemergence: velvetleaf; type: in vivo
Summary of the method: as §1

[13] = Postemergence, 31 g ai/ha, scale 0 to 100 (0 no effect, 100 complete control)
[14] = Postemergence, 62 g ai/ha, scale 0 to 100 (0 no effect, 100 complete control)
[15] = Postemergence, 250 g ai/ha, scale 0 to 100 (0 no effect, 100 complete control)
[16] = Preemergence, 31 g ai/ha, scale 0 (no effect) to 100 (complete control)
[17] = Preemergence, 62 g ai/ha, scale of 0 to 100, 0 is no effect, 100 is complete control
[18] = Preemergence, 125 g ai/ha, scale 0 to 100, 0 no effect, 100 complete control
[19] = Preemergence, 250 g ai/ha, scale 0 to 100, 0 no effect, 100 complete control
[20] = Postemergence, 125 g ai/ha, scale 0 to 100, 0 no effect, 100 complete control
[21] = Postemergence, 250 g ai/ha, scale 0 to 100
[22] = 31 g ai/ha, scale 0 to 100 (0 no effect, 100 complete control)
[23] = 62 g ai/ha, scale 0 to 100 (0 no effect, 100 complete control)

## CCCc1nn(-c2ccc(F)c(F)c2)nc1Oc1ccnc(C(F)(F)F)c1 [Compound 172]
[1]; [13]
  Plant response rating, Morningglory: 65
[1]; [14]
  Plant response rating, Morningglory: 80
[1]; [15]
  Plant response rating, Morningglory: 80
[1]; [16]
  Plant response rating, Morningglory: 30
[1]; [17]
  Plant response rating, Morningglory: 35
[1]; [18]
  Plant response rating, Morningglory: 55
[1]; [19]
  Plant response rating, Morningglory: 70
[2]; 250 g ai/ha
  Plant response rating, Sedge, Umbrella (0 to 100 scale, 0 is no effect, 100 is complete control): 75
[3]
  Plant response rating, Waterhemp: 95
[4]; [13]
  Plant response rating, Corn: 20
[4]; [14]
  Plant response rating, Corn: 20
[4]; [20]
  Plant response rating, Corn: 25
[4]; [21]
  Plant response rating, Corn: 30
[4]; [16]
  Plant response rating, Corn: 5
[4]; [17]
  Plant response rating, Corn: 5
[4]; [18]
  Plant response rating, Corn: 15
[4]; [19]
  Plant response rating, Corn: 40
[5]; [13]
  Plant response rating, Lambsquarters: 98
[5]; [14]
  Plant response rating, Lambsquarters: 98
[5]; [20]
  Plant response rating, Lambsquarters: 98
[5]; [15]
  Plant response rating, Lambsquarters: 98
[5]; [16]
  Plant response rating, Lambsquarters: 90
[5]; [17]
  Plant response rating, Lambsquarters: 90
[5]; [18]
  Plant response rating, Lambsquarters: 95
[5]; [19]
  Plant response rating, Lambsquarters: 95
[6]; [13]
  Plant response rating, Galium: 90
[6]; [14]
  Plant response rating, Galium: 90
[6]; [20]
  Plant response rating, Galium: 90
[6]; [15]
  Plant response rating, Galium: 90
[6]; [16]
  Plant response rating, Galium: 80
[6]; [17]
  Plant response rating, Galium: 100
[6]; [18]
  Plant response rating, Galium: 100
[6]; [19]
  Plant response rating, Galium: 100
[7]
  Plant response rating, Waterhemp: 90
[8]; 250 g ai/ha
  Plant response rating, Rice (0 to 100 scale, 0 is no effect, 100 is complete control): 50
[9]; [22]
  Plant response rating, Barnyardgrass: 40
[9]; [23]
  Plant response rating, Barnyardgrass: 45
[9]; 250 g ai/ha, scale 0 to 100
  Plant response rating, Barnyardgrass: 90
[10]; [13]
  Plant response rating, Wheat: 10
[10]; [14]
  Plant response rating, Wheat: 20
[10]; [20]
  Plant response rating, Wheat: 25
[10]; [15]
  Plant response rating, Wheat: 30
[10]; [16]
  Plant response rating, Wheat: 15
[10]; [17]
  Plant response rating, Wheat: 40
[10]; [18]
  Plant response rating, Wheat: 45
[10]; [19]
  Plant response rating, Wheat: 45
[11]
  Plant response rating, Oilseed Rape: 90
[12]; [13]
  Plant response rating, Velvetleaf: 65
[12]; [14]
  Plant response rating, Velvetleaf: 65
[12]; [20]
  Plant response rating, Velvetleaf: 75
[12]; [15]
  Plant response rating, Velvetleaf: 80
[12]; [16]
  Plant response rating, Velvetleaf: 60
[12]; [17]
  Plant response rating, Velvetleaf: 75
[12]; [18]
  Plant response rating, Velvetleaf: 100
[12]; [19]
  Plant response rating, Velvetleaf: 100

## CCCc1nn(-c2ccc(F)cc2F)nc1Oc1ccnc(C(F)(F)F)c1 [Compound 179]
[1]; [13]
  Plant response rating, Morningglory: 65
[1]; [14]
  Plant response rating, Morningglory: 80
[1]; [20]
  Plant response rating, Morningglory: 80
[1]; [15]
  Plant response rating, Morningglory: 90
[1]; [16]
  Plant response rating, Morningglory: 5
[1]; [17]
  Plant response rating, Morningglory: 40
[1]; [18]
  Plant response rating, Morningglory: 55
[1]; [19]
  Plant response rating, Morningglory: 65
[2]; 125 g ai/ha
  Plant response rating, Sedge, Umbrella (0 to 100 scale, 0 is no effect, 100 is complete control): 75
[3]
  Plant response rating, Waterhemp: 90
[4]; [13]
  Plant response rating, Corn: 15
[4]; [14]
  Plant response rating, Corn: 15
[4]; [20]
  Plant response rating, Corn: 15
[4]; [21]
  Plant response rating, Corn: 15
[4]; [16]
  Plant response rating, Corn: 5
[4]; [17]
  Plant response rating, Corn: 20
[4]; [18]
  Plant response rating, Corn: 20
[4]; [19]
  Plant response rating, Corn: 20
[5]; [13]
  Plant response rating, Lambsquarters: 80
[5]; [14]
  Plant response rating, Lambsquarters: 80
[5]; [20]
  Plant response rating, Lambsquarters: 85
[5]; [15]
  Plant response rating, Lambsquarters: 90
[5]; [16]
  Plant response rating, Lambsquarters: 98
[5]; [17]
  Plant response rating, Lambsquarters: 98
[5]; [18]
  Plant response rating, Lambsquarters: 98
[5]; [19]
  Plant response rating, Lambsquarters: 100
[6]; [13]
  Plant response rating, Galium: 90
[6]; [14]
  Plant response rating, Galium: 90
[6]; [20]
  Plant response rating, Galium: 90
[6]; [15]
  Plant response rating, Galium: 90
[6]; [16]
  Plant response rating, Galium: 80
[6]; [17]
  Plant response rating, Galium: 100
[6]; [18]
  Plant response rating, Galium: 100
[6]; [19]
  Plant response rating, Galium: 100
[7]
  Plant response rating, Waterhemp: 80
[8]; 125 g ai/ha
  Plant response rating, Rice (0 to 100 scale, 0 is no effect, 100 is complete control): 35
[9]; [22]
  Plant response rating, Barnyardgrass: 40
[9]; [23]
  Plant response rating, Barnyardgrass: 45
[9]; 250 g ai/ha, scale 0 to 100
  Plant response rating, Barnyardgrass: 75
[10]; [13]
  Plant response rating, Wheat: 5
[10]; [14]
  Plant response rating, Wheat: 10
[10]; [20]
  Plant response rating, Wheat: 15
[10]; [15]
  Plant response rating, Wheat: 15
[10]; [16]
  Plant response rating, Wheat: 5
[10]; [17]
  Plant response rating, Wheat: 15
[10]; [18]
  Plant response rating, Wheat: 50
[10]; [19]
  Plant response rating, Wheat: 55
[11]
  Plant response rating, Oilseed Rape: 98
[12]; [13]
  Plant response rating, Velvetleaf: 55
[12]; [14]
  Plant response rating, Velvetleaf: 75
[12]; [20]
  Plant response rating, Velvetleaf: 75
[12]; [15]
  Plant response rating, Velvetleaf: 75
[12]; [16]
  Plant response rating, Velvetleaf: 30
[12]; [17]
  Plant response rating, Velvetleaf: 75
[12]; [18]
  Plant response rating, Velvetleaf: 80
[12]; [19]
  Plant response rating, Velvetleaf: 80
